# Results as given in patent US12653894B2, “Degradation of FAK or FAK and ALK by conjugation of FAK and ALK inhibitors with E3 ligase ligands and methods of use” (DANA-FARBER CANCER INSTITUTE, INC., priority 2018, dated 2026).
# Where two headings read alike, the source gives them in different places.
# Key:
# FAK [1] = biological target: T1, FAK (Homo sapiens, UniProt Q05397); assay: FAK degradation by immunoblot in H3122 cells; format: cell-based; parameters: endogenous in cells; host or cells: H3122; settings: 10 nM to 1000 nM, 16 hours (compound 10) or 24 hours (compounds 1, 9)
# FAK [2] = biological target: T1, FAK; assay: FAK degradation by immunoblot in PA-TU-8988T cells; format: cell-based; parameters: endogenous in cells; host or cells: PA-TU-8988T; settings: for Degradation of FAK protein (in words): 0.1 nM to 1000 nM; for Degradation of FAK protein (in words) / Concentration at which degradation of FAK protein is evident / Concentration of maximal degradation of FAK protein / Concentration giving modest degradation of FAK protein: immunoblot; for inhibition at 0.01 µM / inhibition at 0.1 µM: PaTu 8988t; for inhibition at 0.01 µM: read-out: Degradation at 10 nM; for inhibition at 0.1 µM: read-out: Degradation at 100 nM
# Method: (§1) Immunoblotting for FAK was performed to evaluate changes in protein levels upon FAK degrader treatment. All samples were run with equal total protein content and immunoblotting was performed using antibodies that detect total FAK protein as well as GAPDH or α-Tubulin as a loading control. Fluorescently labelled infrared secondary antibodies that enable detection using an Odyssey® CLx Imager was employed to evaluate protein levels.
# FAK degraders were evaluated in immunoblot assays to determine the effective dose required to achieve FAK protein loss. Immunoblots for FAK protein were normalized relative to the loading control and percent degradation was evaluated compared to DMSO treatment.
# ALK [3] = biological target: T2, ALK (Homo sapiens, UniProt Q9UM73); assay: ALK degradation by immunoblot in H3122 cells; format: cell-based; parameters: endogenous in cells; host or cells: H3122; the other entry of the earlier key: EML4 (Q9HC35, Echinoderm microtubule-associated protein-like 4); settings: 10 nM to 1000 nM, 16 hours (compound 10) or 24 hours (compounds 1, 9)
# Target sequence in this assay (Q9UM73 with tags, fused parts or gaps): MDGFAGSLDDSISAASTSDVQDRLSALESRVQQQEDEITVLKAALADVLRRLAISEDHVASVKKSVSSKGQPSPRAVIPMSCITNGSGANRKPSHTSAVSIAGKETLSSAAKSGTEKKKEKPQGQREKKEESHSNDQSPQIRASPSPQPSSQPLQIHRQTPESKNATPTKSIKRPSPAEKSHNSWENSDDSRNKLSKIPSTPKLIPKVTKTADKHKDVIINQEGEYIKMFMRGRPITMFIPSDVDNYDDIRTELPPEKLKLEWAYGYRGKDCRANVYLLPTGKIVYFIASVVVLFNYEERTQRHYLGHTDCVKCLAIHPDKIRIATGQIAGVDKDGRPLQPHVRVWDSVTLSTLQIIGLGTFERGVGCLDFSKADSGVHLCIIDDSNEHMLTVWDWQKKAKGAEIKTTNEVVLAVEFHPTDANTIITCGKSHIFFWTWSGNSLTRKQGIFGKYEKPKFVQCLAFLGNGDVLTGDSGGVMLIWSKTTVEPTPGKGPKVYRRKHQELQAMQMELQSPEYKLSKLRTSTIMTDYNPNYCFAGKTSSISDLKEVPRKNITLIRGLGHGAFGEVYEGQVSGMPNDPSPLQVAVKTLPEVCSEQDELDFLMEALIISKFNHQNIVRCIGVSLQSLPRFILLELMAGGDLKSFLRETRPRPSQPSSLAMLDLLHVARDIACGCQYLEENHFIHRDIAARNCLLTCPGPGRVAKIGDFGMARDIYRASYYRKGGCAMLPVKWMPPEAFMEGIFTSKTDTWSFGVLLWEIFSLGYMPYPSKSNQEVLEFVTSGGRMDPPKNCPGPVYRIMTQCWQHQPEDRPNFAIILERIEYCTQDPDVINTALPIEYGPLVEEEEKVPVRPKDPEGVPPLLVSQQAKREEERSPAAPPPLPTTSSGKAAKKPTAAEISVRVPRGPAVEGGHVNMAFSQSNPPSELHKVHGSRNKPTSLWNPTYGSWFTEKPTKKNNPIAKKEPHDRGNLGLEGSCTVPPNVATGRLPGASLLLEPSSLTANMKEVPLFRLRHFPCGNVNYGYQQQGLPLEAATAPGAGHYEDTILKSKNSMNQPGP
# Target sequence in this assay (Q96SW2 whole entry partner): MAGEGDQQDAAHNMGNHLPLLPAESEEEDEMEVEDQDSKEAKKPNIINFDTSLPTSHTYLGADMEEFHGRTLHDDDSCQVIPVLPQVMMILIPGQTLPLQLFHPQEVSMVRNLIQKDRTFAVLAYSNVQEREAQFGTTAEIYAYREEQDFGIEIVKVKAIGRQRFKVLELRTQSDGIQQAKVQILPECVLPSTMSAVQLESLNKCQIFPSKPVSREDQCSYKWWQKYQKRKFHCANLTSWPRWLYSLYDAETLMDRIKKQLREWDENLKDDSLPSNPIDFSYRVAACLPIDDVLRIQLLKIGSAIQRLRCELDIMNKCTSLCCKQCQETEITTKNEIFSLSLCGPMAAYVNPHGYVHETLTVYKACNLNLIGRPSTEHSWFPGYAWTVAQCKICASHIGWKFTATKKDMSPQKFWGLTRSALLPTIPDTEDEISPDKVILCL
# FAK [4] = biological target: T1, FAK; assay: Rescue of compound 9-induced FAK degradation in PA-TU-8988T cells after pre-treatment; format: cell-based; parameters: endogenous in cells; host or cells: PA-TU-8988T; settings: pre-treatment 2 hours (0.5 μM carfilzomib, 1.0 μM MLN4924, 10 μM lenalidomide, 10 μM compound 13), then 10 nM compound 9 for 4 hours
# Method: as §1, with “PA-TU-8988T cells were treated with FAK degraders or indicated inhibitors for four hours at the indicated doses. After four hours, PA-TU-8988T cells were lysed in radioimmunoprecipitation assay (RIPA) buffer (Thermo Scientific™) on ice for 60 minutes and lysates were clarified by centrifugation. Immunoblotting” for “Immunoblotting”
# ALK [5] = biological target: T2, ALK; assay: In vitro kinase assay (Life Technologies), ALK; parameters: purchased Life Technologies; settings: ATP concentration = Km, duplicate; read-out: Biochemical IC50 ALK
# Method: (§2) In vitro kinase assays with inventive compound 13 and VS-4718 were performed by Life Technologies™ in duplicate at an ATP concentration=Km for each indicated kinase. The results are summarized in Table 2 and indicate that inventive compound 13 maintained potent FAK activity, with improved activity on ALK as compared to VS-4718.
# Target sequence in this assay (Q9UM73 19-1620): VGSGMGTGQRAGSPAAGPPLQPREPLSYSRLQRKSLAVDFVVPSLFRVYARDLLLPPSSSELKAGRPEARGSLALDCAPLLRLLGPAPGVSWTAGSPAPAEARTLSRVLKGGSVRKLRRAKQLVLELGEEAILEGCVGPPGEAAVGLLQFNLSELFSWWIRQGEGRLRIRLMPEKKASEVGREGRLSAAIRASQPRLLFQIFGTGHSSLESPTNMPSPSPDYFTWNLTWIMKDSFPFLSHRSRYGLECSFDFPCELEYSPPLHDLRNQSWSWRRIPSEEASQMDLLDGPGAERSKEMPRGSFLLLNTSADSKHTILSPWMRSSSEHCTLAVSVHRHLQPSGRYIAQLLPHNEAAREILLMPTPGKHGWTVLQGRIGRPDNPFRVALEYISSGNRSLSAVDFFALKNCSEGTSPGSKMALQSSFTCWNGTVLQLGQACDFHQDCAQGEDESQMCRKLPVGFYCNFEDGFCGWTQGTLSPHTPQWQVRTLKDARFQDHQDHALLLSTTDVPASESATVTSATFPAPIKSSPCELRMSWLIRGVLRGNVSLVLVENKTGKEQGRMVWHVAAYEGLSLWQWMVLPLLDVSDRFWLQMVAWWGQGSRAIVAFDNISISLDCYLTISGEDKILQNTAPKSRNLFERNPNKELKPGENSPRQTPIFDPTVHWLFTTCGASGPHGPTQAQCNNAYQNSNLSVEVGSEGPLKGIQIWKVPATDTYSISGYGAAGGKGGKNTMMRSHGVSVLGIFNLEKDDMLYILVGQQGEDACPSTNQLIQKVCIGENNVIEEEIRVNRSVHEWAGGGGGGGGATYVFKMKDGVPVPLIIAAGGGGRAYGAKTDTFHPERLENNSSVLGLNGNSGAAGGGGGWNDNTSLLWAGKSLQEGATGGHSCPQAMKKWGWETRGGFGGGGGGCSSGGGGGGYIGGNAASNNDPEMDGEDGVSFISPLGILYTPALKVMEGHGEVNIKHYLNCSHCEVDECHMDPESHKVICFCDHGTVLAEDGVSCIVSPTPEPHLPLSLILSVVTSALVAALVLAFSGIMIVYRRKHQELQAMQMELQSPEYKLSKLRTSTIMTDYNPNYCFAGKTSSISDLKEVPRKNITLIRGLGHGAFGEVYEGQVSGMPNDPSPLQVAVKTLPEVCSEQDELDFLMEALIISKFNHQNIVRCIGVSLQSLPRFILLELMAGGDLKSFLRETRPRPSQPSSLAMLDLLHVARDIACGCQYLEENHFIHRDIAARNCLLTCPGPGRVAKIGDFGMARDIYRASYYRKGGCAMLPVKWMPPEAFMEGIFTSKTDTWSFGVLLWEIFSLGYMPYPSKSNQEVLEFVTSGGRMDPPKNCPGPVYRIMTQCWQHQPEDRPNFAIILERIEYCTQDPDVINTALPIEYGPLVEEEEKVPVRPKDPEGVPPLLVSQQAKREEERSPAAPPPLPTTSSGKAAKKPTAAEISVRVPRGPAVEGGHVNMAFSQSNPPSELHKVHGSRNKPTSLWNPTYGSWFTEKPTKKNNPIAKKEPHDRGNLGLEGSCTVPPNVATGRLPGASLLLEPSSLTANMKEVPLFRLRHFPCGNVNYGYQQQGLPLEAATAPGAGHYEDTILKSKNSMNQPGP
# FAK [6] = biological target: T1, FAK; assay: In vitro kinase assay (Life Technologies), FAK; settings: ATP concentration = Km, duplicate; read-out: Biochemical IC50 FAK
# Method: as §2
# [7] = total FAK protein, PA-TU-8988T cells, 10 nM, 4 hours, vs DMSO
# [8] = total FAK protein, PA-TU-8988T cells, 100 nM, 4 hours, vs DMSO
# T1 sequence (Q05397 whole entry): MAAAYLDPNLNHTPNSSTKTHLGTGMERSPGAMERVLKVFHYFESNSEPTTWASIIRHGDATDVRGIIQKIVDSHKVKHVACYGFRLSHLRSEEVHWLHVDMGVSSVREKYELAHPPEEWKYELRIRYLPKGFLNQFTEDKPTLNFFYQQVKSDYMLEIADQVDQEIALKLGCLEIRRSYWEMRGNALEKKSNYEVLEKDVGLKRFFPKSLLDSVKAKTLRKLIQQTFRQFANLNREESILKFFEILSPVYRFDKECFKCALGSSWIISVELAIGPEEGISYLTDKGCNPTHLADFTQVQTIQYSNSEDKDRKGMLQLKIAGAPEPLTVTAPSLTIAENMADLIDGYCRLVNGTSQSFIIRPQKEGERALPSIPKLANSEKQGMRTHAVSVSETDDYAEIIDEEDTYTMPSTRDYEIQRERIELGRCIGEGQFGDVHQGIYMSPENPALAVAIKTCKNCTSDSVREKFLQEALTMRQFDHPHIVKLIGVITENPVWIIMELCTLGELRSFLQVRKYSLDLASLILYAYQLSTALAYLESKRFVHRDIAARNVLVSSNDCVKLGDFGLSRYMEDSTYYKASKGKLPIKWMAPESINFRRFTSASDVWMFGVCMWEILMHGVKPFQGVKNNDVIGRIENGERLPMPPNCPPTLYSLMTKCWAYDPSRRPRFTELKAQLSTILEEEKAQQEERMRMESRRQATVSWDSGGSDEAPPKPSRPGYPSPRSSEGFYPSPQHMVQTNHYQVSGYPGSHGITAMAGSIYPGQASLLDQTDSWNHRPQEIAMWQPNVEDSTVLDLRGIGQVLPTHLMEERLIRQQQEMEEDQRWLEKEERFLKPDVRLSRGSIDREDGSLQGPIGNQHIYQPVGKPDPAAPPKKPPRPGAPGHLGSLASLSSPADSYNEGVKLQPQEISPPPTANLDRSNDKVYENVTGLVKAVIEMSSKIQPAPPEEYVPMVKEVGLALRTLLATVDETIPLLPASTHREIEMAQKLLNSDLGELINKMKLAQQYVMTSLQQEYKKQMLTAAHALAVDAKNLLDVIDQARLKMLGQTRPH
Compound,"Concentration at which degradation of FAK protein is evident (FAK [2]; PA-TU-8988T cells, 4 hours) [nM]","Concentration of maximal degradation of FAK protein (FAK [2]; PA-TU-8988T cells, 4 hours) [nM]",inhibition at 0.01 µM (FAK [2]; [7]) [%],inhibition at 0.1 µM (FAK [2]; [8]) [%],further results
"CS(=O)(=O)c1cccc(CNc2nc(Nc3ccc(C(=O)NCCCCCCCCNC(=O)COc4cccc5c4C(=O)N(C4CCC(=O)NC4=O)C5=O)cc3)ncc2C(F)(F)F)c1 (stereo not drawn) [Compound 7, N-(8-(2-((2-(2,6-dioxopiperidin-3-yl)-1,3-dioxoisoindolin-4-yl)oxy)acetamido)octyl)-4-((4-((3-(methylsulfonyl)benzyl)amino)-5-(trifluoromethyl)pyrimidin-2-yl)amino)benzamide]",10,100,25 to 49,85 to 100,
"CS(=O)(=O)c1cccc(CNc2nc(Nc3ccc(C(=O)N4CCN(CCCCCNC(=O)COc5cccc6c5C(=O)N(C5CCC(=O)NC5=O)C6=O)CC4)cc3)ncc2C(F)(F)F)c1 (stereo not drawn) [Compound 8, 2-((2-(2,6-dioxopiperidin-3-yl)-1,3-dioxoisoindolin-4-yl)oxy)-N-(5-(4-(4-((4-((3-(methylsulfonyl)benzyl)amino)-5-(trifluoromethyl)pyrimidin-2-yl)amino)benzoyl)piperazin-1-yl)pentyl)acetamide]",,100,,,"Concentration giving modest degradation of FAK protein (FAK [2]; PA-TU-8988T cells, 4 hours): 10 nM; inhibition at 0.01 µM (FAK [2]; 4 h): 0 to 24%; inhibition at 0.1 µM (FAK [2]; 4 h): 25 to 49%"
"CNC(=O)c1ccccc1Nc1nc(Nc2cc(C)c(C3CCN(CCCCCCNC(=O)COc4cccc5c4C(=O)N(C4CCC(=O)NC4=O)C5=O)CC3)cc2OC(C)C)ncc1C(F)(F)F (stereo not drawn) [Compound 10, 2-((2-((4-(1-(6-(2-((2-(2,6-dioxopiperidin-3-yl)-1,3-dioxoisoindolin-4-yl)oxy)acetamido)hexyl)piperidin-4-yl)-2-isopropoxy-5-methylphenyl)amino)-5-(trifluoromethyl)pyrimidin-4-yl)amino)-N-methylbenzamide]",,,,,Degradation of FAK protein in H3122 cells (in words) (FAK [1]): pronounced degradation of FAK protein; Degradation of ALK protein in H3122 cells (in words) (ALK [3]): degradation of ALK protein
NS(=O)(=O)OC[C@@H]1C[C@@H](n2ccc3c(N[C@H]4CCc5ccccc54)ncnc32)C[C@@H]1O [MLN4924],,,,,Rescue of FAK degradation induced by compound 9 (FAK [4]): rescued the degradation induced by compound 9
"CNC(=O)c1ccccc1Nc1cc(Nc2ccc(N3CCOCC3)cc2OC)ncc1C(F)(F)F [VS-4718, reference compound]",,,,,"IC50 (ALK [5]): 41.1 nM; Degradation of FAK protein (in words) (FAK [2]; PA-TU-8988T cells, 4 hours): did not induce degradation of FAK protein; IC50 (FAK [6]): 20 nM"
CC(C)C[C@H](NC(=O)[C@H](CCc1ccccc1)NC(=O)CN1CCOCC1)C(=O)N[C@@H](Cc1ccccc1)C(=O)N[C@@H](CC(C)C)C(=O)[C@@]1(C)CO1 [carfilzomib],,,,,Rescue of FAK degradation induced by compound 9 (FAK [4]): rescued the degradation induced by compound 9
Nc1cccc2c1CN(C1CCC(=O)NC1=O)C2=O (stereo not drawn) [lenalidomide],,,,,Rescue of FAK degradation induced by compound 9 (FAK [4]): rescued the degradation induced by compound 9
PF-573228 [reference compound],,,,,"Degradation of FAK protein (in words) (FAK [2]; PA-TU-8988T cells, 4 hours): did not induce degradation of FAK protein"

# Second part, led by results:
"Concentration at which degradation of FAK protein is evident (FAK [2]; PA-TU-8988T cells, 4 hours) [nM]","Concentration of maximal degradation of FAK protein (FAK [2]; PA-TU-8988T cells, 4 hours) [nM]",inhibition at 0.01 µM (FAK [2]; [7]) [%],inhibition at 0.1 µM (FAK [2]; [8]) [%],Compound,further results
1,10,85 to 100,85 to 100,"CNC(=O)c1ccccc1Nc1cc(Nc2ccc(N3CCN(CCCCCCNC(=O)COc4cccc5c4C(=O)N(C4CCC(=O)NC4=O)C5=O)CC3)cc2OC)ncc1C(F)(F)F (stereo not drawn) [Compound 1, 2-((2-((4-(4-(6-(2-((2-(2,6-dioxopiperidin-3-yl)-1,3-dioxoisoindolin-4-yl)oxy)acetamido)hexyl)piperazin-1-yl)-2-methoxyphenyl)amino)-5-(trifluoromethyl)pyridin-4-yl)amino)-N-methylbenzamide]","Degradation of FAK protein in H3122 cells (in words) (FAK [1]): pronounced degradation of FAK protein; Degradation of FAK protein (in words) (FAK [2]; PA-TU-8988T cells, 4 hours): rapid and pronounced degradation of FAK protein"
,,0 to 24,0 to 24,"CNC(=O)c1ccccc1Nc1cc(Nc2ccc(N3CCN(CCCCCCNC(=O)COc4cccc5c4C(=O)N(C4CCC(=O)N(C)C4=O)C5=O)CC3)cc2OC)ncc1C(F)(F)F (stereo not drawn) [Compound 2, 2-((2-((2-methoxy-4-(4-(6-(2-((2-(1-methyl-2,6-dioxopiperidin-3-yl)-1,3-dioxoisoindolin-4-yl)oxy)acetamido)hexyl)piperazin-1-yl)phenyl)amino)-5-(trifluoromethyl)pyridin-4-yl)amino)-N-methylbenzamide]","Degradation of FAK protein (in words) (FAK [2]; PA-TU-8988T cells, 4 hours): did not induce degradation of FAK protein"
,,50 to 69,85 to 100,"CNC(=O)c1ccccc1Nc1cc(Nc2ccc(N3CCN(CCOCCOCCOCCNC(=O)COc4cccc5c4C(=O)N(C4CCC(=O)NC4=O)C5=O)CC3)cc2OC)ncc1C(F)(F)F (stereo not drawn) [Compound 3, 2-((2-((4-(4-(1-((2-(2,6-dioxopiperidin-3-yl)-1,3-dioxoisoindolin-4-yl)oxy)-2-oxo-6,9,12-trioxa-3-azatetradecan-14-yl)piperazin-1-yl)-2-methoxyphenyl)amino)-5-(trifluoromethyl)pyridin-4-yl)amino)-N-methylbenzamide]","Concentration giving modest degradation of FAK protein (FAK [2]; PA-TU-8988T cells, 4 hours): 100 nM"
10,100,70 to 84,85 to 100,"CNC(=O)c1ccccc1Nc1cc(Nc2ccc(N3CCN(CCOCCOCCNC(=O)CNc4cccc5c4C(=O)N(C4CCC(=O)NC4=O)C5=O)CC3)cc2OC)ncc1C(F)(F)F (stereo not drawn) [Compound 4, 2-((2-((4-(4-(2-(2-(2-(2-((2-(2,6-dioxopiperidin-3-yl)-1,3-dioxoisoindolin-4-yl)amino)acetamido)ethoxy)ethoxy)ethyl)piperazin-1-yl)-2-methoxyphenyl)amino)-5-(trifluoromethyl)pyridin-4-yl)amino)-N-methylbenzamide]",
1,10,,,"CNC(=O)c1ccccc1Nc1cc(Nc2ccc(N3CCN(CCCCCCCCNC(=O)CNc4cccc5c4C(=O)N(C4CCC(=O)NC4=O)C5=O)CC3)cc2OC)ncc1C(F)(F)F (stereo not drawn) [Compound 5, 2-((2-((4-(4-(8-(2-((2-(2,6-dioxopiperidin-3-yl)-1,3-dioxoisoindolin-4-yl)amino)acetamido)octyl)piperazin-1-yl)-2-methoxyphenyl)amino)-5-(trifluoromethyl)pyridin-4-yl)amino)-N-methylbenzamide]",
10,100,85 to 100,85 to 100,"CNC(=O)c1ccccc1Nc1cc(Nc2ccc(N3CCN(CCCCCCCCNc4cccc5c4C(=O)N(C4CCC(=O)NC4=O)C5=O)CC3)cc2OC)ncc1C(F)(F)F (stereo not drawn) [Compound 6, 2-((2-((4-(4-(8-((2-(2,6-dioxopiperidin-3-yl)-1,3-dioxoisoindolin-4-yl)amino)octyl)piperazin-1-yl)-2-methoxyphenyl)amino)-5-(trifluoromethyl)pyridin-4-yl)amino)-N-methylbenzamide]",
